“Also recorded” adds a separate entry of the source.
Legend:
[1] = biological target: T1, FBD35 (PfFKBP35 binding domain) (Plasmodium falciparum, UniProt Q8I4V8); experiment: Fluorescence polarization competition, FBD35
T1 construct: FKBP35 Q5 -A128; 6His-SUMO (N, cleaved yes); made in house; host or cells: E. coli BL21 DE3

FKBP35 = biological target: T2, FKBP35 (Plasmodium falciparum, UniProt Q8I4V8); experiment: Time course of covalent modification by LC-MS; format: biochemical; conditions: for K, rate of FKBP35 consumption: 2250 nM inhibitor : 450 nM FKBP35, 23 °C, one phase decay fit; for K’, rate of covalent adduct formation: 2250 nM inhibitor : 450 nM FKBP35, exponential plateau fit
T2 construct: FKBP35 Q5 -A128; 6His-SUMO (N, cleaved yes); made in house; host or cells: E. coli BL21 DE3
T2 sequence (Q8I4V8 5-128): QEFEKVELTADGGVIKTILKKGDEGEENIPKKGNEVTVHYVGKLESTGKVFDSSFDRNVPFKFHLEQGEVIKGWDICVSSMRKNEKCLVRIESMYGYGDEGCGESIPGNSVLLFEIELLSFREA
Excerpt: RT=5.2). B. Overlay of mass determinations from LC traces in (A). FBD35 only (black, m/z = […]
chromatogram corresponding to Figure 4c detecting the CAM -peptide […] at […]
m/z 855.8668. D. Mass spec chromatogram corresponding to Figure 4d detecting the CAM - […]
peptide […] at m/z 855.8670. E. Mass spec chromatogram corresponding to Figure 4e which was unable to detect the mass of the 1c-inclusion peptide. F. Mass spec chromatogram corresponding to Figure 4f detecting the 1c-inclusion peptide […]
Figure S2. Time course of covalent modification. In order to compare rates of covalent modification, compounds 1a-c, 2a, and 2c were incubated with FKBP35 in a 5:1 ratio (2250 nM inhibitor : 450 nM FKBP35) and FKBP35 consumption or modification determined by LC -MS. A.
The concentration of residual FKBP35 as a function of time. Data was fit to an exponential “one phase decay” model which was used to calculate the rate (K) and half -life (t1/2) of the reaction.
The loss of FKBP35 in the DMSO and 1b controls is likely due to adsorption onto the vial. B.
Concentration of covalent adduct as a function of time. Data was fit to an “exponential plateau” regression model, which was used to calculate the rate of formation (K’). Compound 1b, which […]
C. Tabulated rates calculated from the regressions in A and B. The rates of FKBP35 consumption correlate strongly with the rates of […]
(also on this page, place not known: -inclusion 1c 0 20 40 60 0 200 400 600 Time (hours) FKBP35 (nM) Consumption of FKBP35 1a 1b 1c 2a 2c DMSO 0 20 40 60 0 200 400 600 Time (hours) Covalent Adduct (nM) Formation of Covalent Adduct 1a 1b 1c 2a 2c A B) […]
(1 picture or pasted object on this page, not shown here)
Experiments were performed using 0.4 mg/mL concentration of wild -type or mutant protein (6 - 9 uM), with and without synthes ized compounds at 40 µM and 2% DMSO (V/V). The respective reference scans were run under identical DSC conditions and subtracted from each sample scan.
The program was run in a continuous acquisition mode from 25°C to 90°C at a rate of 120C/h The heat capacity curves and midpoint temperature (Tm) were analyzed using Origin 7.0 software.
Fluorescence Polarization
The fluorescent tracer SLFb-2PEG-TAMRA was diluted in DMSO to 100 nM (100x stock concentration). FKBP proteins were diluted in assay buffer (150 mM NaCl, 20 mM HEPES pH 7.5, 0.002% Triton X -100) to the indicated concentration. 100x DMSO tracer stock was added to the protein buffer solution to a 1X final concentration and 20 µL of the mixture was aliquoted into each well of a black 384 -well assay plate (No. 3820, Corning Life Sciences). The plate was briefly centrifuged to remove bubbles. Using a d300e digital dispenser (Tecan), competitive ligands (10 mM stock in DMSO) were aliquoted in triplicate in an 8 -point 3x dilution series (30 µM to 13.7 nM final concentra tion) and normalized to 2% total DMSO concentration. Following incubation at room temperature (RT) for one hour, fluorescence polarization was measured using an EnVision Multimode Plate Reader (PerkinElmer) with the TAMRA Dual -FP mirror and filter kit. […]
analyzed in GraphPad Prism 8 by fitting the data to the “One Site – Fit Ki” model to obtain the […]
Time Course Analysis of Covalent Inhibition
The following analy sis was performed as described on two different days, yielding similar results.
One replicate is shown for clarity. In 1.5 mL snap -top tubes, ligands 1a, 1b, 1c, 2a, and 2c were each diluted to 450 μM in DMSO to produce 200x stock solutions. In a separate 1.5 mL snap-top tube, isolated FKBP35 protein was diluted to 90 μM in the reaction buffer (150 mM NaCl, 20 mM HEPES pH = 7.5) to produce a 200x stock solution. In 2 mL glass mass spec vials, 5 μL of each 200x ligand solution was diluted in 990 μL reaction buffer. Immediately prior to injection of each t=0 time point, 5 μL of the 200x protein solution was added to the mass spec vial and mixed. Samples were analyzed using the Waters BioAccord LC-ToF (composed of an ACQUITY I -Class UPLC and […]

T1 sequence (Q8I4V8 5-128): as above

Compound	IC50 [1]	covalent adduct formation (in words) (FKBP35; LC-MS time course)	K, rate of FKBP35 consumption (FKBP35)	K’, rate of covalent adduct formation (FKBP35)	fold weaker binding by FP ([1]; acrylamide moved to ortho position, compared with 1a)
CCC(=O)Nc1cccc([C@@H](CCc2ccc(OC)c(OC)c2)OC(=O)[C@@H]2CCCCN2C(=O)C(=O)C(C)(C)CC)c1 [1b]	76 nM	no binding; also recorded: does not form any adduct	–	–	–
C=CC(=O)Nc1cccc([C@@H](CCc2ccc(OC)c(OC)c2)OC(=O)[C@@H]2CCCCN2C(=O)C(=O)C(C)(C)CC)c1 [1a]	206 nM	–	0.0724 h⁻¹	0.05948 h⁻¹	–
C=CC(=O)Nc1ccccc1[C@@H](CCc1ccc(OC)c(OC)c1)OC(=O)[C@@H]1CCCCN1C(=O)C(=O)C(C)(C)CC [1c]	2850 nM	–	0.1132 h⁻¹	0.1128 h⁻¹	> 10 fold
C=CC(=O)OCC(C)(C)C(=O)C(=O)N1CCCC[C@H]1C(=O)O[C@H](CCc1ccc(OC)c(OC)c1)c1ccccc1 [2c]	559 nM	–	0.8871 h⁻¹	0.9298 h⁻¹	–
